According to patent US20230141603A1, “BENZODIAZEPINE DERIVATIVES AS GABA A GAMMA1 PAM” (Hoffmann-La Roche Inc., priority 2021, published 2023):

Target: T1, h-GABAA α2β2γ1 (Homo sapiens, UniProt P47869+Q8N1C3)
T1 sequence (P47869 29-451): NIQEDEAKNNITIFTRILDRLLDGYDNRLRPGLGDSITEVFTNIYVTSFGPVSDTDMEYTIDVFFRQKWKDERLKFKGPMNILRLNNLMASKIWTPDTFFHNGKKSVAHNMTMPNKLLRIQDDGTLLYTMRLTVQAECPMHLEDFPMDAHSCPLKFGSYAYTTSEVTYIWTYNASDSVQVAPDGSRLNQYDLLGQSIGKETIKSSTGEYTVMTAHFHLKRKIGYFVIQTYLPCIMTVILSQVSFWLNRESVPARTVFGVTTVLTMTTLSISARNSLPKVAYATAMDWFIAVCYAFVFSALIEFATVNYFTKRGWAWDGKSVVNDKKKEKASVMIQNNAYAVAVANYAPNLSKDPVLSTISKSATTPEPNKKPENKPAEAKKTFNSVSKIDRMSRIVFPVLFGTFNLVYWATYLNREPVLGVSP
T1 sequence (P47870 25-512 partner limits assumed): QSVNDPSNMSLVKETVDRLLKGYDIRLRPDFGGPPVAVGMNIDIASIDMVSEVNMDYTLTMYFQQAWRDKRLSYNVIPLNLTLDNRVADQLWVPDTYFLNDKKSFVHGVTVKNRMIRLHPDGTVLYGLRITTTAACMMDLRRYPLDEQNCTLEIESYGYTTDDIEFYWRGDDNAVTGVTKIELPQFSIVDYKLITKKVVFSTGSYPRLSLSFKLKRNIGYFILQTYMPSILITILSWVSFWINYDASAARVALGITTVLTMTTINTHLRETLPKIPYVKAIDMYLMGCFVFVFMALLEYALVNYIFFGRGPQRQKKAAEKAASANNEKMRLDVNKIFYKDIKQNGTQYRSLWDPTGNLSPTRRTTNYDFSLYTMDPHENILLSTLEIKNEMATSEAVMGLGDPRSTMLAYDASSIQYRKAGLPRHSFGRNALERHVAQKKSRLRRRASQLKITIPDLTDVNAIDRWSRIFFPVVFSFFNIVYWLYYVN
T1 sequence (Q8N1C3 36-465): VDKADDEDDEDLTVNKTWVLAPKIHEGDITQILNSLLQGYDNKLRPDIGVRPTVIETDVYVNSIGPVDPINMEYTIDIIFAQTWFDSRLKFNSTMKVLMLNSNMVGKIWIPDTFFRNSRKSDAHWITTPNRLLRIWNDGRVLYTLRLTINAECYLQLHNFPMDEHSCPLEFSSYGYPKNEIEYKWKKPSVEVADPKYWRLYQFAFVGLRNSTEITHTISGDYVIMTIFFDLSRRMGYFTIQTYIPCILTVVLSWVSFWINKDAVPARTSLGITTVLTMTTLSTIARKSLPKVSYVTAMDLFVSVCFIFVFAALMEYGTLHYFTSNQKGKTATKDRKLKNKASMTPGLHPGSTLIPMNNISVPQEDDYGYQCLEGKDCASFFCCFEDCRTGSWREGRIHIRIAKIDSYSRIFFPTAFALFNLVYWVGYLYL
Test: Radioligand binding assay, [3H]RO7239181 competition, HEK293F membranes
Design: signal peptide of human GABAA α5 subunit (Met1 to Ser31), replacing the α2 signal peptide (N); expressed in transfected cells; host or cells: HEK293F cells (ThermoFisher R79007), membranes
Description: The affinity of compounds at GABAA γ1 subunit-containing receptors was measured by competition for [^3H]RO7239181 (67.3 Ci/mmol; Roche) binding to membranes from HEK293F cells (ThermoFisher R79007) expressing human (transiently transfected) receptors of composition […], α2β2γ1, α1β2γ1.
Harvested pellets from HEK293F cells expressing the different GABAA receptor subtypes were resuspended in Mannitol Buffer pH 7.2-7.4 (Mannitol 0.29M, Triethylamine 10 mM, Acetic acid 10 mM, EDTA 1 mM plus protease inhibitors (20 tablets Complete, Roche Diagnostics Cat. No. 05 056 489 001 per liter)), washed two times and then resuspended at 1:10 to 1:15 dilution in the same buffer. Cell disruption was performed by stirring the suspension in a Parr vessel #4637 at 435 psi for 15 minutes, and then the suspensions were centrifuged at 1000×g for 15 minutes at 4° C. (Beckman Avanti J-HC; rotor JS-4.2). The supernatant (S1) was transferred in a 21 Schott flask and the pellet (P1) was resuspended with Mannitol Buffer up to 175 ml. The resuspended pellet was transferred into a 250 ml Corning centrifugal beaker and centrifuged at 1500×g for 10 minutes at 4° C. (Beckman Avanti J-HC; rotor JS-4.2). The supernatant (S1) was then transferred in the 21 Schott flask and the pellet was discarded. The supernatants (S1) were centrifuged in 500 ml Beckman polypropylene centrifugal beaker at 15′000×g for 30 minutes at 4° C. (Beckman Avanti J-20 XP; rotor JLA-10.500). The pellet (P2) was resuspended with Mannitol Buffer 1:1 and frozen at −80° C. The supernatant (S2) was centrifuged in 100 ml Beckman polypropylene centrifugal tubes at 48000×g for 50 minutes at 4° C. (Beckman Avanti J-20 XP; rotor JA-18). The supernatant (S3) was discarded and the pellet (P3) was resuspended with 1:1 Mannitol Buffer. The P2 and P3 protein concentration was determined with the BIORAD Standard assay method with bovine serum albumin as standard and measured on the NANO-Drop 1000. The membrane suspension was aliquots (500 μl per tube) and stored at −80° C. until required. Membrane homogenates were resuspended and polytronised (Polytron PT1200E Kinematica AG) in Potassium Phosphate 10 mM, KCl 100 mM binding buffer at pH 7.4 to a final assay concentration determined with a previous experiment.
Assays were incubated to equilibrium for 1 hour at 4° C. and then, membranes were filtered onto unifilter (96-well white microplate with bonded GF/C filters preincubated 20-50 minutes in 0.3% Polyethylenimine) with a Filtermate 196 harvester (Packard BioScience) and washed 4 times with cold Potassium Phosphate 10 mM pH 7.4, KCl 100 mM binding buffer. After drying, filter-retained radioactivity was detected by liquid scintillation counting. Ki values were calculated using Excel-Fit (Microsoft) and are the means of two determinations.

| Compound | Ki [nM] |
| --- | --- |
| Cc1nnc2n1-c1ccc(Br)c(Cl)c1C(c1c(F)cccc1F)=NC2 [Example 1, 8-bromo-7-chloro-6-(2,6-difluorophenyl)-1-methyl-4H-[1,2,4]triazolo[4,3-a][1,4]benzodiazepine] | 8 |
| Fc1ccccc1C1=NCc2nnc(C3CC3)n2-c2ccc(Br)c(Cl)c21 [Example 2, 8-bromo-7-chloro-1-cyclopropyl-6-(2-fluorophenyl)-4H-[1,2,4]triazolo[4,3-a][1,4]benzodiazepine] | 47.9 |
| Fc1ccccc1C1=NCc2nnc(-c3cccnn3)n2-c2ccc(Br)c(Cl)c21 [Example 3, 8-bromo-7-chloro-6-(2-fluorophenyl)-1-pyridazin-3-yl-4H-[1,2,4]triazolo[4,3-a][1,4]benzodiazepine] | 8.8 |
| Cc1nnc2n1-c1ccc(Cl)c(Cl)c1C(c1ccccc1F)=NC2 [Example 4, 7,8-dichloro-6-(2-fluorophenyl)-1-methyl-4H-[1,2,4]triazolo[4,3-a][1,4]benzodiazepine] | 65.8 |
| Cc1nnc2n1-c1ccc(Cl)c(Cl)c1C(c1c(F)cccc1F)=NC2 [Example 5, 7,8-dichloro-6-(2,6-difluorophenyl)-1-methyl-4H-[1,2,4]triazolo[4,3-a][1,4]benzodiazepine] | 6.6 |
| Cc1nnc2n1-c1ccc(C3CC3)c(Cl)c1C(c1c(F)cccc1F)=NC2 [Example 6, 7-chloro-8-cyclopropyl-6-(2,6-difluorophenyl)-1-methyl-4H-[1,2,4]triazolo[4,3-a][1,4]benzodiazepine] | 93.3 |
| Fc1cccc(F)c1C1=NCc2nncn2-c2ccc(Br)c(Cl)c21 [Example 7, 8-bromo-7-chloro-6-(2,6-difluorophenyl)-4H-[1,2,4]triazolo[4,3-a][1,4]benzodiazepine] | 8.5 |
| Fc1ccccc1C1=NCc2nncn2-c2ccc(Br)c(Cl)c21 [Example 8, 8-bromo-7-chloro-6-(2-fluorophenyl)-4H-[1,2,4]triazolo[4,3-a][1,4]benzodiazepine] | 47.6 |
| O=c1[nH]nc2n1-c1ccc(Cl)c(Cl)c1C(c1c(F)cccc1F)=NC2 [Example 9, 7,8-dichloro-6-(2,6-difluorophenyl)-2,4-dihydro-[1,2,4]triazolo[4,3-a][1,4]benzodiazepin-1-one] | 8 |
| Fc1ccccc1C1=NCc2nnc(-c3cccnn3)n2-c2ccc(Cl)c(Cl)c21 [Example 10, 7,8-dichloro-6-(2-fluorophenyl)-1-pyridazin-3-yl-4H-[1,2,4]triazolo[4,3-a][1,4]benzodiazepine] | 9.5 |
| Fc1cccc(F)c1C1=NCc2nnc(C3CCOCC3)n2-c2ccc(Cl)c(Cl)c21 [Example 11, 7,8-dichloro-6-(2,6-difluorophenyl)-1-tetrahydropyran-4-yl-4H-[1,2,4]triazolo[4,3-a][1,4]benzodiazepine] | 49.1 |
| Fc1cccc(F)c1C1=NCc2nnc(-c3ccncn3)n2-c2ccc(Cl)c(Cl)c21 [Example 12, 7,8-dichloro-6-(2,6-difluorophenyl)-1-pyrimidin-4-yl-4H-[1,2,4]triazolo[4,3-a][1,4]benzodiazepine] | 10.4 |
| O=c1[nH]nc2n1-c1ccc(Br)c(Cl)c1C(c1c(F)cccc1F)=NC2 [Example 13, 8-bromo-7-chloro-6-(2,6-difluorophenyl)-2,4-dihydro-[1,2,4]triazolo[4,3-a][1,4]benzodiazepin-1-one] | 6.2 |
| Fc1cccc(F)c1C1=NCc2nnc(-c3cccnn3)n2-c2ccc(Cl)c(Cl)c21 [Example 14, 7,8-dichloro-6-(2,6-difluorophenyl)-1-pyridazin-3-yl-4H-[1,2,4]triazolo[4,3-a][1,4]benzodiazepine] | 3.4 |
| Fc1cccc(F)c1C1=NCc2nncn2-c2ccc(Cl)c(Cl)c21 [Example 15, 7,8-dichloro-6-(2,6-difluorophenyl)-4H-[1,2,4]triazolo[4,3-a][1,4]benzodiazepine] | 8.7 |
| Cc1ccc2c(c1Cl)C(c1c(F)cccc1F)=NCc1n[nH]c(=O)n1-2 [Example 16, 7-chloro-6-(2,6-difluorophenyl)-8-methyl-2,4-dihydro-[1,2,4]triazolo[4,3-a][1,4]benzodiazepin-1-one] | 26.5 |
| Cc1ccc2c(c1Cl)C(c1c(F)cccc1F)=NCc1nncn1-2 [Example 17, 7-chloro-6-(2,6-difluorophenyl)-8-methyl-4H-[1,2,4]triazolo[4,3-a][1,4]benzodiazepine] | 19.8 |
| Fc1ccccc1C1=NCc2nnc(-c3ccncn3)n2-c2ccc(Cl)c(Cl)c21 [Example 18, 7,8-dichloro-6-(2-fluorophenyl)-1-pyrimidin-4-yl-4H-[1,2,4]triazolo[4,3-a][1,4]benzodiazepine] | 21.6 |
| COCCc1nnc2n1-c1ccc(Cl)c(Cl)c1C(c1c(F)cccc1F)=NC2 [Example 19, 7,8-dichloro-6-(2,6-difluorophenyl)-1-(2-methoxyethyl)-4H-[1,2,4]triazolo[4,3-a][1,4]benzodiazepine] | 26 |
| Cc1ccc2c(c1Cl)C(c1c(F)cccc1F)=NCc1nnc(C)n1-2 [Example 20, 7-chloro-6-(2,6-difluorophenyl)-1,8-dimethyl-4H-[1,2,4]triazolo[4,3-a][1,4]benzodiazepine] | 23.8 |
| CC(F)(F)c1ccc2c(c1Cl)C(c1c(F)cccc1F)=NCc1nncn1-2 [Example 21, 7-chloro-8-(1,1-difluoroethyl)-6-(2,6-difluorophenyl)-4H-[1,2,4]triazolo[4,3-a][1,4]benzodiazepine] | 52 |
| Cc1nnc2n1-c1ccc(C(C)(F)F)c(Cl)c1C(c1c(F)cccc1F)=NC2 [Example 22, 7-chloro-8-(1,1-difluoroethyl)-6-(2,6-difluorophenyl)-1-methyl-4H-[1,2,4]triazolo[4,3-a][1,4]benzodiazepine] | 37.4 |
| Fc1cccc(F)c1C1=NCc2nncn2-c2ccc(C(F)F)c(Cl)c21 [Example 23, 7-chloro-8-(difluoromethyl)-6-(2,6-difluorophenyl)-4H-[1,2,4]triazolo[4,3-a][1,4]benzodiazepine] | 54.5 |
